From patent publication EP0095295B1, “Cyclic peptide derivatives” (ELI LILLY AND COMPANY, priority 1982, dated 1987)

Columns and labels:
[1] = solubility (listed characteristics); format: physicochemical; conditions: water
[2] = fermentation medium, pH values above pH 7.2
Text: In stirred fermentors the pH may be controlled by sensor controllers. Where this is impractical, such as in flask fermentors, pH may be controlled by adding 0.1 molar phosphate buffer to the medium prior to addition of the substrate.

acute toxicity in mice = format: in vivo; conditions: administered intravenously to mice
Method: The acute toxicity of NTrp-p-(n-dodecyloxy)benzoyl-A―21978C, when administered intravenously to mice and expressed as LDso, was 67.5 mg/kg.

Compound	Solubility [1]	stability (alkaline hydrolysis) [2]	acute toxicity expressed as LDso (acute toxicity in mice) [mg/kg]
C[C@H](CC(=O)O)[C@@H]1NC(=O)[C@@H](CO)NC(=O)CNC(=O)[C@H](CC(=O)O)NC(=O)[C@@H](C)NC(=O)[C@H](CC(=O)O)NC(=O)[C@H](CCCN)NC(=O)CNC(=O)[C@@H](NC(=O)[C@H](CC(=O)O)NC(=O)[C@H](CC(N)=O)NC(=O)[C@@H](N)Cc2c[nH]c3ccccc23)[C@@H](C)OC(=O)[C@H](CC(=O)c2ccccc2N)NC1=O [A-21978C nucleus]	soluble in water	increasingly subject to alkaline hydrolysis	–
CCCCCCCCCCCCOc1ccc(C(=O)N[C@@H](Cc2c[nH]c3ccccc23)C(=O)N[C@@H](CC(N)=O)C(=O)N[C@@H](CC(=O)O)C(=O)N[C@@H]2C(=O)NCC(=O)N[C@@H](CCCN)C(=O)N[C@@H](CC(=O)O)C(=O)N[C@H](C)C(=O)N[C@@H](CC(=O)O)C(=O)NCC(=O)N[C@H](CO)C(=O)N[C@@H]([C@H](C)CC(=O)O)C(=O)N[C@@H](CC(=O)c3ccccc3N)C(=O)O[C@@H]2C)cc1 [NTrp-p-(n-dodecyloxy)benzoyl-A―21978C, NTrp-P-(n-dodecyloxy)benzoyl-A-21978C Nucleus]	–	–	67.5
